US20020106348A1, “Cancer therapeutics involving the administration of 2-methoxyestradiol and an agent that increases intracellular superoxide anion” (priority 2000, published 2002)
Read-outs that look alike come from different tables or passages of the source.

Legend:
CEM = test: MTT assay, CEM leukemia cells; format: cell-based; conditions: Homo sapiens, CCRF-CEM, CEM (mutant p53)
Raji = test: MTT assay, Raji cells; format: cell-based; conditions: Homo sapiens, Raji (mutant p53)
HL-60 [1] = test: MTT assay, HL-60 cells; format: cell-based; conditions: Homo sapiens, HL-60 (no p53)
normal lymphocytes [2] = test: MTT assay, normal lymphocytes from healthy donors; format: cell-based, human; conditions: normal lymphocytes from 8 healthy donors; MTT 72 h / 96 h
AML cells = test: MTT assay, primary AML cells; format: cell-based, human; conditions: 30 μM, 6 patients
ALL cells = test: MTT assay, primary ALL cells; format: cell-based, human; conditions: 30 μM, 2 patients
ML-1 = test: Apoptosis / nucleosomal DNA fragmentation in ML-1 cells; format: cell-based, human; conditions: 1 μM; ML-1 (wt p53)
[3] = test system: leukemia cells from a CML (chronic myelogenous leukemia) patient in relapsed blast crisis; test: Induction of apoptosis in primary leukemia cells from a CML patient; format: cell-based, human; conditions: in vitro
normal lymphocytes [4] = test: DNA fragmentation in normal lymphocytes; format: cell-based, human; conditions: 0-30 μM, additional 3 days
PHA-treated lymphocytes = test: MTT assay, PHA-stimulated lymphocytes; format: cell-based, human; conditions: 3-day drug incubation
CuZnSOD (SOD1) mRNA = test: cDNA microarray assay of gene expression; format: cell-based, human; conditions: 5 h after 2-ME incubation; normalized by three internal standards
From the text: The Atlas™ Human cDNA Expression Array I and the Atlas™ Human Cancer cDNA Expression Array (ClonTech Laboratories, Inc.) were used in this study. One microgram of mRNA isolated from the control or drug-treated cells was converted to radioactive cDNA by reverse transcription in the presence of [α-^32P]-dATP. The ^32P-labeled cDNA was then denatured and hybridized to the eDNA expression arrays according to the procedures recommended by the manufacturer. The radioactivity on the membranes was quantified by a phosphoimager.

SOD1 protein = test: Immunoblot of SOD1 protein in ML-1 cells; format: cell-based, human; conditions: ML-1 cells at 10 h
ML-1 cells = test: Cellular O2^- by hydroethidine flow cytometry, ML-1 cells; format: cell-based, human; conditions: ML-1, 1 μM, 5 h; control 4.3
CLL cells = test: Cellular O2^- by hydroethidine flow cytometry, CLL cells; format: cell-based, human
Procedure: The method using hydroethidine to detect O2^− in tissue sections was adapted for quantitation of intracellular O2^− by flow cytometry analysis. This assay is based on the unique chemical properties of hydroethidine, a weak blue fluorescent dye which is selectively converted by O2^− to ethidium with a bright red fluorescence. The control and drug-treated cells (1.5×10^6/sample) were incubated with hydroethidine (20 ng/ml) for 60 min, washed twice with 3 ml PBS, resuspended in 2 ml PBS, and then analyzed within 1 h by flow cytometry, using the red laser channel.

HL-60 cells [5] = test: Cellular O2^- by flow cytometry, HL-60 cells; format: cell-based, human; conditions: 0.25 μM
HL-60 [6] = test: H2O2 generation in cell culture, HL-60 cells; format: cell-based, human
human CuZnSOD = molecular target: T1, human CuZnSOD (Homo sapiens, UniProt P00441); test: In vitro SOD activity assay (xanthine/xanthine oxidase, XTT), human CuZnSOD; format: biochemical; conditions: purified enzyme; read-out: IC50, inhibition of human CuZnSOD
T1 construct: purchased Sigma

bovine CuZnSOD = molecular target: T2, bovine CuZnSOD (Bos taurus, UniProt P00442); test: In vitro SOD activity assay, bovine CuZnSOD; format: biochemical; conditions: purified enzyme; read-out: IC50, inhibition of bovine CuZnSOD
T2 construct: purchased Boehringer Mannheim
Procedure: (§1) A spectrophotometric assay was used to determine the effect of 2-methoxyestradiol (2-ME) on SOD activity in vitro with purified enzymes (bovine CuZnSOD from Boehringer Mannheim; human CuZnSOD and E. coli MnSOD from Sigma). The reactions contained 2.5 ml of 50 mM Na2CO3, 0.1 ml of 3 mM xanthine, 0.1 ml of 3 mM EDTA, and 0.1 ml of 0.8 mM XTT (3′-(1-[phenylamino-carbonyl]3,4-tetrazolium)-bis(4-methoxy-6-nitro)benzene-sulfonic acid hydrate), and the indicated concentrations of SOD and 2-ME. Xanthine oxidase (0.1 ml, 64 mU/ml) was added to start the reaction. After incubation at 24° C. for 30 min, the absorbance at 470 nm was measured. The relative activity (RA) of SOD was calculated by the following formula: […]
(§2) where a is the absorbance of reaction without SOD, b is the absorbance of reaction with SOD but without 2-ME, c is the absorbance of reaction with SOD in the presence of 2-ME. All values were subtracted by the background reading of the blank. In separate experiments using nitro blue tetrazolium or cytochrome c as substrates for SOD assay, 2-ME and DMSO (as a solvent for 2-ME) interfered with the calorimetric reaction. These artifacts preclude the use of NBT or cytochrome c as the substrates for measuring the effect of 2-ME on SOD activity. Neither 2-ME nor DMSO affect the calorimetric reaction of XTT.

E. coli MnSOD = E. coli MnSOD (Escherichia coli, UniProt P00448); test: In vitro SOD activity assay, E. coli MnSOD; format: biochemical; conditions: purified enzyme; read-out: IC50, inhibition of E. coli MnSOD
Procedure: as §1, §2

CuZnSOD = test: Inhibition of CuZnSOD by estrogen derivatives; format: biochemical; conditions: FIG. 20
xanthine oxidase = test: Effect on xanthine oxidase; format: biochemical; conditions: 1-100 μM
[7] = test system: bovine alkaline phosphatase; test: Effect on alkaline phosphatase (removal of 5'-phosphate from [14C]GMP); format: biochemical; conditions: 1-100 μM
HL-60 [8] = test: Release of cytochrome c to cytosol; format: cell-based, human
leukemia cell lines = test: Apoptosis induction in leukemia cell lines; format: cell-based, human; conditions: leukemia cell lines tested
[9] = test system: leukemia cell lines, primary CLL cells, and normal lymphocytes; test: Cellular accumulation of [3H]2-ME; format: in vitro ADME, human; conditions: 1 μM [3H]2-ME, 5-h incubation
Procedure: To determine cellular uptake of 2-ME, cells were incubated with 1 μM [^3H]2-ME (0.5 μCi/ml) for 5 h and when washed twice with cold PBS. Radioactivity associated with the cell pellets or the culture medium was quantitated by liquid scintillation counting. 2-ME concentrations were calculated based on the specific radioactivity of [^3H]2-ME, cell number, and the mean cell volume as measured by a Coulter Counter equipped with a 256-Channelyzer. HPLC was used to analyze potential cellular metabolites of 2-ME. Cells were incubated with [^3H]2-ME (0.5 μCi/ml) for 5 h, washed twice with PBS, and then extracted with 50% methanol. The extracts were analyzed by HPLC equipped with a UV detector (284 nm) and an on-line liquid scintillation counter, using a μBondapak C18 reversed-phase column and the following running conditions: 1 ml/min; 0-5 min, 100% buffer A (water:acetontrile:acetic acid=59:40:1); 5-17 min, a linear gradient of 0->100% buffer B (water:acetontrile:acetic acid=39:60:1); 17-30 min, 100% B.

HL-60 cells [10] = test system: HL-60 cells

T2 sequence (P00442 whole entry): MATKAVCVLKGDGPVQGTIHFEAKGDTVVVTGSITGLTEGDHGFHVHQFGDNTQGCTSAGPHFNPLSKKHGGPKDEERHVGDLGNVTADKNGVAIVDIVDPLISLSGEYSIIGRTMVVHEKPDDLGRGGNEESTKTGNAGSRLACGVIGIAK
Sequence of E. coli MnSOD (P00448 whole entry): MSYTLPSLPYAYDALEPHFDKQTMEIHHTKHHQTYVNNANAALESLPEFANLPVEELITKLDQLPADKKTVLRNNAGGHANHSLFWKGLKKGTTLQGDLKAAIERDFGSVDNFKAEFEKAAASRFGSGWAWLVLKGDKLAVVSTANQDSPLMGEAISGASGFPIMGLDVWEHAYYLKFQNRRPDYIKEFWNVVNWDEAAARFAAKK
T1 sequence (P00441 whole entry): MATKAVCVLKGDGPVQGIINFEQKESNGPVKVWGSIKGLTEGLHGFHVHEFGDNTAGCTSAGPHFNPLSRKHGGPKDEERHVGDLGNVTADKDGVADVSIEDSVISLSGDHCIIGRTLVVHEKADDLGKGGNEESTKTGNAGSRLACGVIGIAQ

**Q.** Which results are given for `COc1cc2c(cc1O)CC[C@@H]1[C@@H]2CC[C@]2(C)[C@@H](O)CC[C@@H]12` [2-ME, 1,3,5(10)-estratrien-2,3,17b-triol 2 methylether]?
**A.** IC50 (CEM): < 1000 nM; IC50 (Raji): < 1000 nM; IC50 (HL-60 [1]): < 1000 nM; cell survival (normal lymphocytes [2]): no apparent loss of cell survival; cell survival (AML cells): 49.6%; cell survival (ALL cells): 56.5%; apoptotic morphology and nucleosomal DNA fragmentation (ML-1): Typical apoptotic morphology and nucleosomal DNA fragmentation were observed; apoptosis in primary CML cells [3]: induced apoptosis; nucleosomal DNA fragmentation (normal lymphocytes [4]): no nucleosomal DNA fragmentation was detected; viability of PHA-treated lymphocytes (PHA-treated lymphocytes): remained viable; proliferation of PHA-treated lymphocytes (PHA-treated lymphocytes; MTT, PHA 5 μg/ml): inhibited the proliferation; expression of CuZnSOD mRNA, % of the control (CuZnSOD (SOD1) mRNA): 236%; increase of SOD1 protein (SOD1 protein): 74%; cellular O2^− content (ML-1 cells): 6.3 arbitrary units; O2^− increase (CLL cells; CLL cells, 30 μM): 226±37%; cellular O2^− (CLL cells; primary leukemia cells from a CLL patient, 2-ME alone): significant accumulation of cellular O2^−; cellular O2^− content (HL-60 cells [5]): increase of cellular O2^−; H2O2 production (HL-60 [6]): concentration-dependent decrease of H2O2; IC50 (human CuZnSOD): ~20 µM; IC50 (bovine CuZnSOD): ~20 µM; IC50 (E. coli MnSOD): ~20 µM; inhibition of SOD activity (CuZnSOD): substantially inhibited SOD activity; effect on xanthine oxidase (xanthine oxidase): little effect; effect on alkaline phosphatase [7]: little effect; cytosolic cytochrome c (HL-60 [8]; at 12 and 14 h): significant amounts of cytosolic cytochrome c were detected; cytosolic cytochrome c (HL-60 [8]; during the first 10 h): no cytochrome c was present in cytosol; concentrations inducing apoptosis (leukemia cell lines): 1 to 10 µM; intracellular concentrating of drug [9]: approximately 10 fold; rhodamine-123 fluorescence intensity (HL-60 cells [10]; 14 h exposure, control 70-100 arbitrary units): 20-40 units; rhodamine-123 retention (HL-60 cells [10]; by 22 h): almost all the cells had lost their ability to retain rhodamine-123; rhodamine-123 retention (HL-60 cells [10]; first 6 h of incubation): no obvious loss of dye retention
